Test results from patent publication US20220145343A1 (priority 2019, published 2022).
Values joined by “and” are separate entries in the source; they are usually repeats but may differ in a detail not shown here. Identical values can stand only once. Marks after values point to notes of the source that are not given here.

Legend:
[1] = tested on: α1-4-galactosyltransferase activity of NmSiaDW; assay: Donor substrate specificity for the α1-4-galactosyltransferase activity of NmSiaDW using different sugar nucleotides (acceptor S3); type: biochemical, Neisseria meningitidis; details: for Percentage conversion (%): acceptor S3 1 mM, donor 2 mM, 30° C.
Experimental: Galactosyltransferase activity was assayed in reaction buffer (100 mM MES, pH 6.5, 10 mM MgCl2) in the presence of 2 mM UDP-sugars and 1 mM Neu5Acα2-6Galα1-4Neu5AcαProNHCbz in a total volume of 10 μL. Reaction was performed at 30° C. with 0.11 μg NmSiaDW for 10 min or 6.6 μg NmSiaDW for 10 h. Reaction was quenched by addition of 10 μL pre-chilled ethanol and incubated at −20° C. for 30 min. […] GDP-Fuc and CMP-Neu5Ac were also included.
Samples were analyzed using UPLC with EcilpsePlusC18 column or AdvancBio Glycan Map column, Agilent. The samples were further analyzed by electrospray ionization (ESI)-HRMS using a Thermo Electron LTQ-Orbitrap Hybrid MS in a negative mode.

[2] = target: NmSiaDW sialyltransferase activity (Neisseria meningitidis, UniProt O33390); details: apparent; varying acceptor, 10 mM CMP-Neu5Ac, pH 8.0, 30° C.
Chain of NmSiaDW sialyltransferase activity (O33390 1-1037): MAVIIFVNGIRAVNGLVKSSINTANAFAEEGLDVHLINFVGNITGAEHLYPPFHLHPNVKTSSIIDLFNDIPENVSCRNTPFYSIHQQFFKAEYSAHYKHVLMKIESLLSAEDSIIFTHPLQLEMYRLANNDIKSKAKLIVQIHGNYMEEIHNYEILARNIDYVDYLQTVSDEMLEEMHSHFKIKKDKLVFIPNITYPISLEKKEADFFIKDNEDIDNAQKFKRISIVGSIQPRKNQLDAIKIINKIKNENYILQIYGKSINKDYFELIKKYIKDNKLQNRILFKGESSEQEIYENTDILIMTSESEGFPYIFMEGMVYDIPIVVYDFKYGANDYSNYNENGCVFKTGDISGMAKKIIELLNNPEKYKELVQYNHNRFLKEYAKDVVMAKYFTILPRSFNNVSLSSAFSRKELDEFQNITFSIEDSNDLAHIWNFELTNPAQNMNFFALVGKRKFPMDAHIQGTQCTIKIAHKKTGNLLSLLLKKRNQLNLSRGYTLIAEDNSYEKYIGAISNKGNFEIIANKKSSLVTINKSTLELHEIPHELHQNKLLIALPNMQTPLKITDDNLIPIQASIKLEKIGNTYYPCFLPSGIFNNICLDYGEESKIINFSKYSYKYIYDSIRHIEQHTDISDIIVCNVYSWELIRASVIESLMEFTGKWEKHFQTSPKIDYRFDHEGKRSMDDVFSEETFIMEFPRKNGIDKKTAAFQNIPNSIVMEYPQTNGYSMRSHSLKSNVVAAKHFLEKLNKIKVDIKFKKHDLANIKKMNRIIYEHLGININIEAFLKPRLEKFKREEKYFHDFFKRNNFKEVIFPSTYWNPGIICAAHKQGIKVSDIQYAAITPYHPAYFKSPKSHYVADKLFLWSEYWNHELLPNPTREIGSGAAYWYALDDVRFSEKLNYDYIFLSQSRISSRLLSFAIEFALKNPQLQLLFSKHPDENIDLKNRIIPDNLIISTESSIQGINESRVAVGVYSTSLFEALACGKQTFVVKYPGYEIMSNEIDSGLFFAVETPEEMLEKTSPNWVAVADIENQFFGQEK

[3] = target: NmCSS (Neisseria meningitidis, UniProt P0A0Z8); type: biochemical; details: step 1 in the presence of NmCSS (0.75 mg/mL) for 10 h
Chain of NmCSS (P0A0Z8 whole entry): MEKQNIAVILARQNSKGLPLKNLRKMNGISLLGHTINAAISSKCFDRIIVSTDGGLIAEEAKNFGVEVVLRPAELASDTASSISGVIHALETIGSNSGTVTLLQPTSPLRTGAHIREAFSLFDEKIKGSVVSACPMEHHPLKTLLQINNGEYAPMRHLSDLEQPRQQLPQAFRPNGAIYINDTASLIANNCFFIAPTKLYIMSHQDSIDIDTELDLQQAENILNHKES

[4] = tested on: α1-4-galactosyltransferase activity of NmSiaDW; type: biochemical, Neisseria meningitidis
[5] = tested on: α2-6-sialyltransferase activity of NmSiaDW; type: biochemical, Neisseria meningitidis
[6] = tested on: NmCSS and PmAldolase; type: biochemical, Neisseria meningitidis; Pasteurella multocida
[7] = target: NmSiaDW galactosyltransferase activity (Neisseria meningitidis, UniProt O33390); details: apparent; varying acceptor, 2 mM UDP-Gal, pH 6.5, 30° C.
Chain of NmSiaDW galactosyltransferase activity (O33390 1-1037): as the sequence (O33390 1-1037) above

CC(=O)N[C@H]1[C@H]([C@H](O)[C@H](O)CO)O[C@](OP(=O)(O)OC[C@H]2O[C@@H](n3ccc(N)nc3=O)[C@H](O)[C@@H]2O)(C(=O)O)C[C@@H]1O [CMP-Neu5Ac, cytidine-5′-monophosphate Neu5Ac]
Percentage conversion (%) ([1]; 11 μg/mL NmSiaDW, 10 min): 0% | Percentage conversion (%) ([1]; 0.66 mg/mL NmSiaDW, 10 h): 0%

CC(=O)N[C@H]1[C@H]([C@H](O)[C@H](O)CO)O[C@@](OC[C@H]2O[C@H](O[C@H]3C[C@](OCCCNC(=O)OCc4ccccc4)(C(=O)O)O[C@@H]([C@H](O)[C@H](O)CO)[C@@H]3NC(C)=O)[C@H](O)[C@@H](O)[C@H]2O)(C(=O)O)C[C@@H]1O[C@H]1O[C@H](CO)[C@H](O)[C@H](O)[C@H]1O [G4, Galα1-4Neu5Acα2-6Galα1-4Neu5AcαProNHCbz]
kcat [2]: 23.1 ± 1.1 s⁻¹

CC(=O)N[C@H]1[C@H]([C@H](O)[C@H](O)CO)O[C@@](OC[C@H]2O[C@H](O[C@H]3C[C@](OC[C@H]4O[C@H](O[C@H]5C[C@](OCCCNC(=O)OCc6ccccc6)(C(=O)O)O[C@@H]([C@H](O)[C@H](O)CO)[C@@H]5NC(C)=O)[C@H](O)[C@@H](O)[C@H]4O)(C(=O)O)O[C@@H]([C@H](O)[C@H](O)CO)[C@@H]3NC(C)=O)[C@H](O)[C@@H](O)[C@H]2O)(C(=O)O)C[C@@H]1O[C@H]1O[C@H](CO)[C@H](O)[C@H](O)[C@H]1O [G6, Galα1(-4Neu5Acα2-6Galα1)2-4Neu5AcαProNHCbz]
Km [2]: 230 ± 40 µM | kcat [2]: 11.9 ± 0.5 s⁻¹

CC(=O)N[C@H]1[C@H]([C@H](O)[C@H](O)CO)O[C@@](OC[C@H]2O[C@H](O[C@H]3C[C@](OC[C@H]4O[C@H](O[C@H]5C[C@](OC[C@H]6O[C@H](O[C@H]7C[C@](OCCCNC(=O)OCc8ccccc8)(C(=O)O)O[C@@H]([C@H](O)[C@H](O)CO)[C@@H]7NC(C)=O)[C@H](O)[C@@H](O)[C@H]6O)(C(=O)O)O[C@@H]([C@H](O)[C@H](O)CO)[C@@H]5NC(C)=O)[C@H](O)[C@@H](O)[C@H]4O)(C(=O)O)O[C@@H]([C@H](O)[C@H](O)CO)[C@@H]3NC(C)=O)[C@H](O)[C@@H](O)[C@H]2O)(C(=O)O)C[C@@H]1O[C@H]1O[C@H](CO)[C@H](O)[C@H](O)[C@H]1O [G8, Galα1(-4Neu5Acα2-6Galα1)3-4Neu5AcαProNHCbz]
Km [2]: 250 ± 40 µM | kcat [2]: 10.3 ± 0.5 s⁻¹

C[C@@H]1O[C@H](OP(=O)(O)OP(=O)(O)OC[C@H]2O[C@@H](n3cnc4c(=O)[nH]c(N)nc43)[C@H](O)[C@@H]2O)[C@@H](O)[C@H](O)[C@@H]1O [GDP-Fucose]
Percentage conversion (%) ([1]; 11 μg/mL NmSiaDW, 10 min): 0% | Percentage conversion (%) ([1]; 0.66 mg/mL NmSiaDW, 10 h): 0%

O=C(O)C(=O)C[C@H](O)[C@@H](O)[C@@H](O)[C@H](O)[C@H](O)CO [Kdn, 2-keto-3-deoxynonulosonic acid]
Percentage conversion (%) CMP-Sialic acid [3]: Quantitative ^a

CC(=O)NC1C(OCCCCl)OC(CO)C(O)C1OC1OC(CO)C(O)C(OC2(C(=O)O)CC(O)C(N=[N+]=[N-])C(C(N=[N+]=[N-])C(C)O)O2)C1O (stereo not drawn) [Leg5,7diN3α2-3Galβ1-3GalNAcβProCl]
Product [4]: √

[N-]=[N+]=N[C@H](C=O)[C@@H](O)[C@H](O)[C@H](O)CO [Man2N3, 2-azido-2-deoxy-mannose]
Percentage conversion (%) Transferase Reaction [5]: 0% | Percentage conversion (%) CMP-Sialic acid [6]: 77 ± 1 ^b %

CC(=O)N[C@@H]1C(O)O[C@H](CO)[C@@H](N=[N+]=[N-])[C@@H]1O (stereo partly shown) [ManNAc4N3, 4-azido-4-deoxy-N-acetylmannosamine]
Percentage conversion (%) CMP-Sialic acid [6]: 90 ± 3 ^b %

CC(=O)N[C@@H]1C(O)O[C@H](CN=[N+]=[N-])[C@@H](O)[C@@H]1O (stereo partly shown) [ManNAc6N3, 6-azido-6-deoxy-N-acetylmannosamine]
Percentage conversion (%) CMP-Sialic acid [6]: 91 ± 10 ^b %

CC(=O)NC[C@@H](O)[C@@H](O)[C@H](O)[C@@H](C=O)NC(C)=O [ManNAc6NAc, 6-N-acetyl-6-deoxy-N-acetylmannosamine]
Percentage conversion (%) Transferase Reaction [5]: 0% | Percentage conversion (%) CMP-Sialic acid [6]: 87 ± 2 ^b %

[N-]=[N+]=NCC(=O)N[C@@H]1C(O)O[C@H](CO)[C@@H](O)[C@@H]1O (stereo partly shown) [ManNAz, N-azidoacetylmannosamine]
Percentage conversion (%) CMP-Sialic acid [6]: Quantitative ^b

CC(=O)N[C@H]1[C@H]([C@H](O)[C@H](O)CO)OC(O)(C(=O)O)C[C@@H]1OC(C)=O (stereo partly shown) [Neu4,5Ac, 4-O-acetyl-N-acetylneuraminic acid]
Percentage conversion (%) Transferase Reaction [5]: 0% | Percentage conversion (%) CMP-Sialic acid [3]: 53 ± 1 ^a %

CC(=O)N[C@H]1[C@H]([C@H](O)[C@H](O)COC(C)=O)OC(O)(C(=O)O)C[C@@H]1O (stereo partly shown) [Neu5,9Ac, 9-O-acetyl-N-acetylneuraminic acid]
Percentage conversion (%) Transferase Reaction [5]: 0% | Percentage conversion (%) CMP-Sialic acid [3]: 61 ± 2 ^a %

CO[C@H](CO)[C@@H](O)[C@@H]1OC(O)(C(=O)O)C[C@H](O)[C@H]1NC(C)=O (stereo partly shown) [Neu5Ac8OMe, 8-O-methyl-N-acetylneuraminic acid]
Percentage conversion (%) CMP-Sialic acid [3]: 79 ± 1 ^a %

CC(=O)N[C@H]1[C@H]([C@H](O)[C@H](O)CO)OC(O)(C(=O)O)C[C@@H]1O (stereo partly shown) [Neu5Ac, N-acetylneuraminic acid]
Percentage conversion (%) CMP-Sialic acid [3]: Quantitative ^a

CC(=O)NC1C(O)CC(OC2C(O)C(CO)OC(OC3C(O)C(CO)OC(OCCCN=[N+]=[N-])C3NC(C)=O)C2O)(C(=O)O)OC1C(O)C(O)CO (stereo not shown) [Neu5Acα2-3Galβ1-3GalNAcβProN3]
Product [4]: √ | acceptor substrate suitability in words [4]: could also tolerate

CC(=O)NC1C(O)CC(OCC2OC(OCCCN)C(O)C(O)C2O)(C(=O)O)OC1C(O)C(O)CO (stereo not shown) [Neu5Acα2-6GalβProNH2]
Product [4]: √

CC(=O)N[C@H]1[C@H]([C@H](O)[C@H](O)CO)OC(OC[C@H]2O[C@@H](Oc3ccc([N+](=O)[O-])cc3)[C@H](O)[C@@H](O)[C@H]2O)(C(=O)O)C[C@@H]1O (stereo partly shown) [Neu5Acα2-6GalβpNP]
Product [4]: √

O=C(CO)N[C@H]1[C@H]([C@H](O)[C@H](O)CO)OC(O)(C(=O)O)C[C@@H]1O (stereo partly shown) [Neu5Gc, N-glycolylneuraminic acid]
Percentage conversion (%) Transferase Reaction [5]: 47 ± 3% and 88 ± 3% | Percentage conversion (%) CMP-Sialic acid [3]: 90 ± 2 ^a %

CC(=O)N[C@H]1[C@H]([C@H](O)[C@H](O)CO)O[C@@](OCCCNC(=O)OCc2ccccc2)(C(=O)O)C[C@@H]1O[C@H]1O[C@H](CO[C@]2(C(=O)O)C[C@H](O[C@H]3O[C@H](CO[C@]4(C(=O)O)C[C@H](O[C@H]5O[C@H](CO[C@]6(C(=O)O)C[C@H](O)[C@@H](NC(C)=O)[C@H]([C@H](O)[C@H](O)CO)O6)[C@H](O)[C@H](O)[C@H]5O)[C@@H](NC(C)=O)[C@H]([C@H](O)[C@H](O)CO)O4)[C@H](O)[C@H](O)[C@H]3O)[C@@H](NC(C)=O)[C@H]([C@H](O)[C@H](O)CO)O2)[C@H](O)[C@H](O)[C@H]1O [S7, Neu5Acα2(-6Galα1-4Neu5Acα2)3-ProNHCbz]
Km [7]: 70 ± 10 µM | kcat [7]: 5.5 ± 0.2 s⁻¹

O=C(O)[C@H]1O[C@H](OP(=O)(O)OP(=O)(O)OC[C@H]2O[C@@H](n3ccc(=O)[nH]c3=O)[C@H](O)[C@@H]2O)[C@H](O)[C@@H](O)[C@H]1O [UDP-GalA]
Percentage conversion (%) ([1]; 11 μg/mL NmSiaDW, 10 min): 0% | Percentage conversion (%) ([1]; 0.66 mg/mL NmSiaDW, 10 h): <1%

CC(=O)N[C@H]1[C@@H](OP(=O)(O)OP(=O)(O)OC[C@H]2O[C@@H](n3ccc(=O)[nH]c3=O)[C@H](O)[C@@H]2O)O[C@H](CO)[C@H](O)[C@@H]1O [UDP-GalNAc]
Percentage conversion (%) ([1]; 11 μg/mL NmSiaDW, 10 min): 0% | Percentage conversion (%) ([1]; 0.66 mg/mL NmSiaDW, 10 h): 1.9 ± 0.2% | donor substrate quality in words ([1]; compared to UDP-Gal, acceptor S3): tolerated as poor donor substrate

O=C(O)[C@H]1O[C@H](OP(=O)(O)OP(=O)(O)OC[C@H]2O[C@@H](n3ccc(=O)[nH]c3=O)[C@H](O)[C@@H]2O)[C@H](O)[C@@H](O)[C@@H]1O [UDP-GlcA]
Percentage conversion (%) ([1]; 11 μg/mL NmSiaDW, 10 min): 0% | Percentage conversion (%) ([1]; 0.66 mg/mL NmSiaDW, 10 h): 0%

CC(=O)N[C@H]1[C@@H](OP(=O)(O)OP(=O)(O)OC[C@H]2O[C@@H](n3ccc(=O)[nH]c3=O)[C@H](O)[C@@H]2O)O[C@H](CO)[C@@H](O)[C@@H]1O [UDP-GlcNAc]
Percentage conversion (%) ([1]; 11 μg/mL NmSiaDW, 10 min): 0% | Percentage conversion (%) ([1]; 0.66 mg/mL NmSiaDW, 10 h): 0%

CC(=O)N[C@@H]1[C@@H](OP(=O)(O)OP(=O)(O)OC[C@H]2O[C@@H](n3ccc(=O)[nH]c3=O)[C@H](O)[C@@H]2O)O[C@H](CO)[C@@H](O)[C@@H]1O [UDP-ManNAc]
Percentage conversion (%) ([1]; 11 μg/mL NmSiaDW, 10 min): 0% | Percentage conversion (%) ([1]; 0.66 mg/mL NmSiaDW, 10 h): 0%

Leg5,7Ac2α2-3Galβ1-3GalNAcβProN3
Product [4]: Not Detected

Neu5Ac7N3α2-6Galα1-4Neu5AcαProNHCbz
Product [4]: √

Neu5Ac9N3α2-6Galα1-4Neu5AcαProNHCbz
Product [4]: √
